We go through 64 molecules from publication PMC7539012, “Hyperphosphorylated tau aggregation and cytotoxicity modulators screen identified prescription drugs linked to Alzheimer's disease and cognitive functions” (Scientific Reports, 2020).

The test deals with T1, 1N4R p-tau.
T1 construct: made in house; host or cells: E. coli (PIMAX system)
Nature of the test: p-tau aggregation modulator screen of 1280-compound library (ThS fluorescence net change over 16 h).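 As to ThS net change: 30 µM compound with 6 µM p-tau over 16 h.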 Type of test: biochemical. Details: key to PTAI>3SD: *: PTAI>3SD.

[1] abbreviates: 1280-compound library screen, […].
[2] abbreviates: 1280-compound library screen, ThS fluorescence net change over 16 h.
Setting [3] is: p-tau aggregation modulator screen of 1280-compound library, ThS fluorescence net change.
Setting [4] is: p-tau aggregation modulator screen of the compound library, ThS fluorescence net change.
The mark [5] stands for this setting: library screen, ThS fluorescence net change over 16 h with p-tau.

Where a name gives a salt, the structure may show the parent alone. Read-outs that look alike come from different tables or passages of the source.

Consider `C[C@]12CC[C@H](O)C[C@H]1CC[C@@H]1[C@@H]2CC[C@]2(C)[C@@H](C3=CC(=O)OC3)CC[C@]12O` [Digitoxigenin], for which the ThS net change under setting [1] was determined as 383.
The molecule `C[C@]12COC(=O)C[C@@H]1CC[C@@H]1[C@@H]2CC[C@@]2(C)[C@H]1CC[C@]2(C)O` [Oxandrolone] yielded a ThS net change (p-tau aggregation modulator screen of 1280-compound library, […]) of 338.
Consider `CN1CCC(OC(c2ccccc2)c2ccccc2)CC1` [Diphenylpyraline hydrochloride], for which the ThS net change under setting [2] was determined as 380.
For `CN1C(=O)OC(C)(C)C1=O` [Trimethadione], under setting [3], the ThS net change stood at 346.
Turning to `C[C@]12CC[C@@H]3c4ccc(O)cc4CC[C@H]3[C@@H]1C[C@@H](O)[C@@H]2O` [Estriol], under setting [4], the ThS net change is listed as 440.
Take `COC(=O)Nc1nc2ccc(C(=O)c3ccccc3)cc2[nH]1` [Mebendazole]: the ThS net change under setting [3] stood at 340.
Turning to `CCOC(=O)O[C@]1(C(=O)COC(=O)CC)CC[C@H]2[C@@H]3CCC4=CC(=O)C=C[C@]4(C)[C@H]3[C@@H](O)C[C@@]21C` [Prednicarbate, prednicarbate], the ThS net change under setting [4] is 910.
In turn, `O=C(NCNC(=O)NC1C(=O)NC(=O)N1CO)NC1C(=O)NC(=O)N1CO` (centres unmarked) [Imidurea] returned a ThS net change of 463.
`O=C1Cc2cc(CCN3CCN(c4nsc5ccccc45)CC3)c(Cl)cc2N1` [Ziprasidone Hydrochloride] returned a ThS net change under setting [5] of 293.
In the case of `CC(=O)O[C@@]12CO[C@@H]1C[C@H](O)[C@@]1(C)C(=O)[C@H](O)C3=C(C)[C@@H](OC(=O)[C@H](O)[C@@H](NC(=O)OC(C)(C)C)c4ccccc4)C[C@@](O)([C@@H](OC(=O)c4ccccc4)[C@H]21)C3(C)C` [Docetaxel], the ThS net change under setting [4] is on record as 542.
On to `CN(C)[C@@H]1C(O)=C(C(N)=O)C(=O)[C@@]2(O)C(O)=C3C(=O)c4c(O)cccc4[C@@](C)(O)[C@H]3[C@H](O)[C@@H]12` [Oxytetracycline dihydrate], for which the ThS net change under setting [5] is reported as 220.
`N[C@@H](Cc1ccc(O)c(O)c1)C(=O)O` [Levodopa] registered a ThS net change under setting [4] of 444.
Under setting [2], `C#CCN(C)CCCOc1ccc(Cl)cc1Cl` [Clorgyline hydrochloride] gave a ThS net change of 400.
In turn, `CCCCc1ccc2[nH]c(NC(=O)OC)nc2c1` [Parbendazole] showed a ThS net change of 465.
On to `C=Cc1c(C)c2cc3nc(cc4[nH]c(cc5nc(cc1[nH]2)C(C)=C5CCC(=O)O)c(CCC(=O)OC)c4C)[C@@]1(C)C3=CC=C(C(=O)OC)C1C(=O)OC` (some centres unmarked) [Verteporfin], for which the “PTAI>3SD” value (flag: p-tau aggregation inhibitor, ThS net change more than 3 SD from mean) is recorded as “*”. Besides, the ThS net change under setting [5] is recorded as -157.
Turning to `Nc1ccn([C@@H]2O[C@H](CO)[C@@H](O)[C@@H]2O)c(=O)n1` [Cytarabine], the ThS net change under setting [2] came out at 392.
On to `CCCOc1ccc(C(=O)OCCN(CC)CC)cc1N` [Proparacaine hydrochloride], for which the ThS net change under setting [2] was found to be 392.
For the molecule `C[C@@H](c1ncncc1F)[C@](O)(Cn1cncn1)c1ccc(F)cc1F` [Voriconazole], under setting [4], the ThS net change stood at 435.
For `CCN(CC)CCOC(=O)C(c1ccccc1)C1CCCCC1` (centres unmarked) [Drofenine hydrochloride], the ThS net change under setting [2] came out at 388.
The molecule `O=C(O)c1cccnc1Nc1cccc(C(F)(F)F)c1` [Niflumic acid] showed a ThS net change under setting [3] of 340.
Regarding `COc1ccc(C(=O)N2CCCC2=O)cc1` [Aniracetam], under setting [2], the ThS net change is 408.
The molecule `CC(=O)N(CC(C)C(=O)O)c1c(I)cc(I)c(N)c1I` (centres unmarked) [Iocetamic acid] yielded a ThS net change under setting [3] of 365.
For `NCCCNCCSP(=O)(O)O` [Amifostine], the ThS net change under setting [2] came out at 392.
In turn, `CN[C@@H]1[C@H](O[C@H]2[C@H](O[C@H]3[C@H](O)[C@@H](O)[C@H](NC(=N)N)[C@@H](O)[C@@H]3NC(=N)N)O[C@@H](C)[C@]2(O)CO)O[C@@H](CO)[C@H](O)[C@H]1O` [Dihydrostreptomycin sulfate] yielded a ThS net change under setting [3] of 331.
Molecule `CN(C)CCCO[C@@H]1[C@H]2OC(C)(C)O[C@H]2O[C@@H]1[C@H](O)CO` [Amiprilose hydrochloride] came in with a ThS net change under setting [3] of 367.
`CC(=O)c1ccc2c(c1)N(CCCN(C)C)c1ccccc1S2.O=C(O)/C=C\C(=O)O` [Acetopromazine maleate salt] gave a ThS net change under setting [5] of 267.
Under setting [2], `CN(c1nccc(=O)[nH]1)C1CCN(c2nc3ccccc3n2Cc2ccc(F)cc2)CC1` [Mizolastine] came in with a ThS net change of 390.
As for `COc1ccc(CCN2CCC(Nc3nc4ccccc4n3Cc3ccc(F)cc3)CC2)cc1` [Astemizole], under setting [5], the ThS net change stood at 265.
In turn, `CN1CCN(C(c2ccccc2)c2ccccc2)CC1.Cl` [Cyclizine hydrochloride] displayed a ThS net change under setting [3] of 377.
Molecule `Nc1nc(NC2CC2)c2ncn([C@H]3C=C[C@@H](CO)C3)c2n1` [Abacavir Sulfate] registered a ThS net change under setting [3] of 363.
As to `C[C@]12C=CC(=O)C=C1CC[C@@H]1[C@@H]2[C@@H](O)C[C@@]2(C)[C@H]1CC[C@]2(O)C(=O)CO` [Prednisolone], the ThS net change under setting [3] is recorded as 351.
Regarding `CNCCc1ccccn1.CS(=O)(=O)O.CS(=O)(=O)O` [Betahistine mesylate], the ThS net change under setting [2] turned out to be 378.
In the case of `C[C@H](CCC(=O)O)[C@H]1CC[C@H]2[C@@H]3[C@H](O)C[C@@H]4C[C@H](O)CC[C@]4(C)[C@H]3CC[C@]12C` [Chenodiol], the ThS net change under setting [2] is 394.
As for `C[C@H]1O[C@H](O[C@H]2[C@H](O)[C@@H](O)[C@@H](O[C@H]3[C@H](O)[C@@H](O)C(O)O[C@@H]3CO)O[C@@H]2CO)[C@H](O)[C@@H](O)[C@@H]1N[C@H]1C=C(CO)[C@@H](O)[C@H](O)[C@H]1O` (some centres unmarked) [Acarbose], the ThS net change under setting [4] is listed as 414.
On to `CC(=O)SCC(Cc1ccccc1)C(=O)NCC(=O)OCc1ccccc1` (centres unmarked) [Racecadotril], for which, under setting [4], the ThS net change is reported as 462.
`CC(=O)NC1CCSC1=O` (racemic) [N-Acetyl-DL-homocysteine Thiolactone]: the ThS net change is 421.
Molecule `CCN1CC(CCN2CCOCC2)C(c2ccccc2)(c2ccccc2)C1=O.Cl` (centres unmarked) [Doxapram hydrochloride] gave a ThS net change under setting [4] of 418.
With `CC(C)(C)NC[C@H](O)COc1nsnc1N1CCOCC1.O=C(O)/C=C\C(=O)O` [Timolol maleate salt], under setting [4], the ThS net change turned out to be 414.
In turn, `CN(C)[C@@H]1C(O)=C(C(N)=O)C(=O)[C@@]2(O)C(O)=C3C(=O)c4c(O)cccc4[C@@](C)(O)[C@H]3C[C@@H]12` [Tetracycline hydrochloride] had a ThS net change under setting [5] of 202.
Consider `CN1CCC[C@@H]1CCO[C@](C)(c1ccccc1)c1ccc(Cl)cc1` [Clemastine fumarate], for which the ThS net change under setting [5] is on record as 268.
Take `CC(C)[N+](C)(CCC(C(N)=O)(c1ccccc1)c1ccccc1)C(C)C` [Isopropamide iodide]: the ThS net change under setting [2] was determined as 395.
In turn, `C#Cc1cccc(Nc2ncnc3cc(OCCOC)c(OCCOC)cc23)c1` [Erlotinib] yielded a ThS net change under setting [2] of 387.
Under setting [1], `CC(=O)OCC(=O)[C@H]1CC[C@H]2[C@@H]3CC[C@H]4C[C@H](O)CC[C@]4(C)[C@H]3C(=O)C[C@]12C` [Alfadolone acetate] registered a ThS net change of 396.
`CCC1(C)CC(=O)NC(=O)C1` [Bemegride] returned a ThS net change of 431.
In turn, `CN(C)CCn1nnnc1SCC1=C(C(=O)O)N2C(=O)[C@@H](NC(=O)Cc3csc(N)n3)[C@H]2SC1` [Cefotiam hydrochloride] yielded a ThS net change under setting [4] of 423.
On to `COc1cc(C)c(/C=C/C(C)=C/C=C/C(C)=C/C(=O)O)c(C)c1C` [Acitretin], for which the ThS net change is on record as 316.
Under setting [3], `CO/N=C(\C(=O)N[C@@H]1C(=O)N2C(C(=O)O)=C(COC(N)=O)CS[C@H]12)c1ccco1` [Cefuroxime sodium salt] registered a ThS net change of 365.
Under setting [3], `CC(C)NCC(O)COc1cccc2[nH]ccc12` (centres unmarked) [Pindolol] showed a ThS net change of 331.
On to `Cc1cc(-n2c(=O)[nH]c(=O)n(C)c2=O)ccc1Oc1ccc(SC(F)(F)F)cc1` [Toltrazuril], for which, under setting [4], the ThS net change was 511.
With `CC[C@@H](CO)NCCN[C@@H](CC)CO` [Ethambutol dihydrochloride], the ThS net change under setting [3] stood at 344.
Regarding `O=c1[nH]c(=O)n([C@H]2C[C@H](O)[C@@H](CO)O2)cc1C(F)(F)F` [Trifluridine], the ThS net change under setting [4] came to 463.
The molecule `Cc1cn([C@H]2C=C[C@@H](CO)O2)c(=O)[nH]c1=O` [Stavudine] displayed a ThS net change under setting [4] of 428.
Regarding `CS(=O)(=O)c1ccc([C@@H](O)[C@@H](CO)NC(=O)C(Cl)Cl)cc1` [Thiamphenicol], under setting [2], the ThS net change was 380.
As for `O=S(=O)(O)CCS` [Mesna], under setting [4], the ThS net change is reported as 424.
In turn, `CC(COc1ccccc1)NC(C)C(O)c1ccc(O)cc1` (centres unmarked) [Isoxsuprine hydrochloride] returned a ThS net change under setting [3] of 347.
Take `O=C(N[C@H](CO)[C@H](O)c1ccc([N+](=O)[O-])cc1)C(Cl)Cl` [Chloramphenicol]: under setting [3], the ThS net change came to 344.
In the case of `CC(C)(C#N)c1cc(Cn2cncn2)cc(C(C)(C)C#N)c1` [Anastrozole], the ThS net change under setting [4] is 484.
Regarding `Oc1c(I)cc(Cl)c2cccnc12` [Clioquinol], under setting [3], the ThS net change was 336.
In turn, `OC(c1cc(C(F)(F)F)nc2c(C(F)(F)F)cccc12)C1CCCCN1` (centres unmarked) [Mefloquine hydrochloride] had a ThS net change under setting [5] of 304.
Turning to `COc1c(N2CCNC(C)C2)c(F)cc2c(=O)c(C(=O)O)cn(C3CC3)c12` (centres unmarked) [Gatifloxacin], under setting [4], the ThS net change was found to be 426.
`CCCCc1cc2ccccc2c(OCCN(C)C)n1` [Dimethisoquin hydrochloride]: the ThS net change under setting [2] was found to be 394.
On to `CNC1(C)C2CCC(C2)C1(C)C` (centres unmarked) [Mecamylamine hydrochloride], for which the ThS net change under setting [4] is 418.
In turn, `CCCc1nn(C)c2c(=O)[nH]c(-c3cc(S(=O)(=O)N4CCN(C)CC4)ccc3OCC)nc12` [Sildenafil] returned a ThS net change under setting [4] of 461.
`COc1cccc2c1C(=O)c1c(O)c3c(c(O)c1C2=O)C[C@@](O)(C(=O)CO)C[C@@H]3O[C@H]1C[C@H](N)[C@@H](O)[C@H](C)O1` [Epirubicin hydrochloride] yielded a ThS net change of 315.
